Measured values published in ChEMBL document CHEMBL2169761, “Exploring the interactions of unsaturated glucuronides with influenza virus sialidase” (J Med Chem, 2012).

What was measured:
[1] = Inhibition of Influenza A virus sialidase N2
[2] = Inhibition of Influenza A virus sialidase N2 by fluorometric assay

SMILES | IC50 [1] | IC50 [2] | Ki [1]
CCC(CC)O[C@@H]1OC(C(=O)O)=C[C@H](N)[C@H]1NC(C)=O | 770 nM |  | 
CCC(CC)O[C@@H]1C=C(C(=O)O)C[C@H](O)[C@H]1NC(C)=O | 15 nM |  | 
CCC(CC)O[C@@H]1OC(C(=O)O)=C[C@H](OC(C)=O)[C@H]1NC(C)=O |  | 5390 nM | 
C=CCO[C@H]1C=C(C(=O)O)O[C@@H](OC(CC)CC)[C@@H]1NC(C)=O |  | 212000 nM | 
CCC(CC)O[C@@H]1OC(C(=O)O)=C[C@H](OC)[C@H]1NC(C)=O |  | 1450 nM | 
CCO[C@H]1C=C(C(=O)O)O[C@@H](OC(CC)CC)[C@@H]1NC(C)=O |  | 28000 nM | 
CCC(CC)O[C@@H]1OC(C(=O)O)=C[C@H](O)[C@H]1NC(C)=O |  | 320 nM | 
CCO[C@H]1C=C(C(=O)O)O[C@@H]([C@H](O)[C@H](O)CO)[C@@H]1NC(C)=O |  | 479000 nM | 
C=C[C@H]1CC(C(=O)O)=C[C@@H](OC(C)C)[C@@H]1NC(C)=O |  |  | 45 nM
C/C=C\[C@@H]1C[C@H](C(=O)O)N[C@H]1[C@@H](NC(C)=O)[C@](C)(CCC)OC |  |  | 0.2 nM
CC(=O)N[C@H]1[C@H]([C@H](O)[C@H](O)CO)OC(C(=O)O)=C[C@@H]1N |  | 680 nM | 
CC(=O)N[C@H]1[C@H]([C@H](O)[C@H](O)CO)OC(C(=O)O)=C[C@@H]1O [NEU5AC2EN] | 1700 nM | 10500 nM | 
CC(=O)N[C@H]1[C@H]([C@H](O)[C@H](O)CO)OC(C(=O)O)=C[C@@H]1NC(=N)N [ZANAMIVIR] | 5 nM | 12 nM | 
